# From patent publication US8337835B2, “Use of an endogenous ligand for peroxisome proliferator activated receptor alpha to treat liver disorders” (priority 2009, dated 2012)
# Columns and labels:
# [1] = tested on: PPARα-dependent genes ACO and CPT-1; experiment: Portal vein infusion, hepatic ACO and CPT-1 mRNA by RT-PCR; type: in vivo, mouse; details: 10 mg/kg intraportal three times a day
# Description: Total RNA was extracted from Hepa 1-6 cells and liver using Trizol (Invitrogen) and treated with DNase I (RNase-free, Roche Molecular Biochemicals). Reverse transcription to cDNA and real-time quantitative PCR were performed using previously published procedures and primer-probe sequences for ACO and CPT-1 (Chakravarthy et al., 2005). RT-PCR for ChPT1 and CEPT1 was performed using the following primer-probe sets: ChPT1 (Forward, 5′-[…]-3′ (SEQ ID NO: 3); Reverse, 5′-[…]-3′ (SEQ ID NO: 4); Probe, 5′-[…]-3′ (SEQ ID NO: 5)); CEPT1 (Forward, 5′-TGCTGGACGGTCCCTTCTC-3′ (SEQ ID NO: 6); Reverse, 5′-[…]-3′ (SEQ ID NO: 7); Probe, 5′-[…]-3′ (SEQ ID NO: 8)). RNA not subjected to reverse transcription was included in each assay as a negative control. […] Relative mRNA levels were calculated using both the comparative CT and standard curve methods normalized to ribosomal protein L32, an invariant internal control. […]
# The objectives were achieved by portal vein infusion of 1-palmitoyl-2-oleoyl-sn-glycerol-3-phosphocholine (16:0/18:1-GPC) to rescue PPARα^−/− mice from fatty liver disease or hepatic steatosis, liver tissue extraction, RT-PCR gene expression analysis of the extracted liver tissue and lipid and triglyceride assessment of the extracted liver tissue. […] Fat staining of liver is shown in FIG. 7C and liver triglyceride quantified in FIG. 7D. […]
# [2] = tested on: PPARα target gene acyl CoA oxidase; experiment: Establishing conditions (dose, rate) for portal vein infusion; type: in vivo, mouse
# Description: We therefore extrapolated the doses in mice taking into account the direct intraportal route, and tested doses ranging from 0.1 mg/day to 10 mg/day based on a 25 g mouse. […] Optimal dosing frequency was determined based on kinetic data obtained by injection of ^14C-labeled 16:0/18:1-GPC (American Radiochemicals, St. Louis) into the portal vein of […] mice as shown in FIG. 12. Following a single injection into the portal vein (1.9 μCi/mouse), total counts from both cytoplasmic and nuclear fractions were obtained (FIG. 12A). Using standard pharmacokinetic equations (Hardman et al., 2001), a dosing interval of 8.7 hours was calculated, indicating an optimal dosing frequency of three times a day.
compound,measurement,setting,value
"CCCCCCCC/C=C\CCCCCCCC(=O)O[C@H](COC(=O)CCCCCCCCCCCCCCC)COP(=O)([O-])OCC[N+](C)(C)C [16:0/18:1-GPC, 1-palmitoyl-2-oleoyl-sn-glycerol-3-phosphocholine]",hepatic ACO and CPT-1 expression,[1]; PPARα-deficient mice,not in PPARα-deficient mice
same,hepatic ACO and CPT-1 expression,[1]; control (C57/BL6) mice,increased
same,lowest dose causing increased expression of the PPARα target gene acyl CoA oxidase,"[2]; intraportal, rapid infusion (<1 min), mice",10 mg/kg
same,solubility of infusate,[2]; larger doses and slower infusion rates,poor solubility
same,lethality,"[2]; larger doses and slower infusion rates, portal vein",death due to portal vein thrombosis
